Measurements from patent US20250270180A1, “MEK INHIBITORS AND THERAPEUTIC USES THEREOF” (Immuneering Corporation, priority 2020, published 2025).
Where two headings read alike, the source gives them in different places.

Assays:
CYP450 2D6 = CYP450 2D6 (Homo sapiens, UniProt P10635); assay: CYP450 panel, 2D6; conditions: 10 μM; substrate dextromethophan
CYP450 2C9 = CYP450 2C9 (Homo sapiens, UniProt P11712); assay: CYP450 panel, 2C9; conditions: 10 μM; substrate Diclofenac
hERG Channel [1] = biological target: T1, hERG Channel (Homo sapiens, UniProt Q12809); assay: in vitro
[2] = Plasma stability, beagle dog; format: in vitro ADME; conditions: 2 μM
CYP450 2C8 = biological target: T2, CYP450 2C8 (Homo sapiens, UniProt P10632); assay: CYP450 panel, 2C8; conditions: 10 μM; substrate amodiaquine
T2 sequence (P10632 1-490): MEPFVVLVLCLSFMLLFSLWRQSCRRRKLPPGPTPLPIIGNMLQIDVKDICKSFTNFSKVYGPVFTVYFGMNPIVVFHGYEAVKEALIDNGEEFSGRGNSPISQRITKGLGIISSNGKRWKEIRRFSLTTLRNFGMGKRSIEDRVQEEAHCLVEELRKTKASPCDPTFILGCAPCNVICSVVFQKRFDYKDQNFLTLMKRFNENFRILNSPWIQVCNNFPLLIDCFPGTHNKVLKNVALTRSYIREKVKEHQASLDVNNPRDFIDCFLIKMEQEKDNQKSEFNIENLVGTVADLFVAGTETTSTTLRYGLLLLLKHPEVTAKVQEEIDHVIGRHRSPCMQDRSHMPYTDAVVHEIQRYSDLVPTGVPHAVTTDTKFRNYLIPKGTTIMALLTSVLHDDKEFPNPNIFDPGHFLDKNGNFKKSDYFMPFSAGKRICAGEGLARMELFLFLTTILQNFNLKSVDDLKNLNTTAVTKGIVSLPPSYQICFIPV

[3] = Plasma stability, CD-1 mouse; format: in vitro ADME; conditions: 2 μM
[4] = Microsome stability, CD-1 mouse; conditions: microsomes, 2 μM
[5] = Microsome stability, human; format: in vitro ADME; conditions: microsomes, 2 μM
CYP450 2C19 = CYP450 2C19 (Homo sapiens, UniProt P33261); assay: CYP450 panel, 2C19; conditions: 10 μM; substrate mephenytoin
CYP450 2B6 = biological target: T3, CYP450 2B6 (Homo sapiens, UniProt P20813); assay: CYP450 panel, 2B6; conditions: 10 μM; substrate bupropion
T3 sequence (P20813 1-491): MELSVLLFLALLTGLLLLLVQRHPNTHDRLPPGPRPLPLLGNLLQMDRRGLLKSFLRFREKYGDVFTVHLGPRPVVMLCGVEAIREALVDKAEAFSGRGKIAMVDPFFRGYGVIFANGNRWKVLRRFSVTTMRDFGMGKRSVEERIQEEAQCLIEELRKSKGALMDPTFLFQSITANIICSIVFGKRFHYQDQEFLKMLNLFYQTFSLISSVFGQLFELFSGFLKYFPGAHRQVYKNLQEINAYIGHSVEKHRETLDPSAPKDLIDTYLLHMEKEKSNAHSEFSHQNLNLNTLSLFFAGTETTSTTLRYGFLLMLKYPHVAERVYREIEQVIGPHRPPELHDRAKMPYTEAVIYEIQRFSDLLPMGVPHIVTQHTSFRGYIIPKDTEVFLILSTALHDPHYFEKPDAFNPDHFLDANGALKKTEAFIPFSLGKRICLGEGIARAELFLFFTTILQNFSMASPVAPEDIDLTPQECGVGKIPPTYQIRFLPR

CYP450 1A2 = biological target: T4, CYP450 1A2 (Homo sapiens, UniProt P05177); assay: CYP450 panel, 1A2; format: in vitro ADME; conditions: 10 μM; substrate phenacetin
T4 sequence (P05177 1-516): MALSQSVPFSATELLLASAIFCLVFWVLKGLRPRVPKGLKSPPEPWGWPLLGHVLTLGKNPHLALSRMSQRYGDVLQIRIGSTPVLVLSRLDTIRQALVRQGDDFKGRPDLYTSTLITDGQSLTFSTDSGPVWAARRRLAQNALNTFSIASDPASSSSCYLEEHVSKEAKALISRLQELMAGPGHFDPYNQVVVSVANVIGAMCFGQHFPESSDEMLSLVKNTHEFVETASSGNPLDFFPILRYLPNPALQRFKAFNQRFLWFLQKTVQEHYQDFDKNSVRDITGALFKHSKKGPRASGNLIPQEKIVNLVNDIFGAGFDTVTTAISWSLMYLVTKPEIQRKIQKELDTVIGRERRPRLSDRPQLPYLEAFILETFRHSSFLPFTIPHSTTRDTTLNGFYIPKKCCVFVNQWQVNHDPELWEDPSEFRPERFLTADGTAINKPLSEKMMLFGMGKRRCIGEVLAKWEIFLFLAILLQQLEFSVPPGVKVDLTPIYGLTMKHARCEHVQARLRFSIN

Plasma stability, human = format: in vitro ADME; conditions: 2 μM
[6] = Microsome stability, beagle dog; format: in vitro ADME; conditions: microsomes, 2 μM
CYP450 3A4 = CYP450 3A4 (Homo sapiens, UniProt P08684); assay: CYP450 panel, 3A4; conditions: 10 μM; for 3A4*: substrate midazolam; for 3A4^: substrate testosterone
[7] = Pharmacokinetics, single dose, 2-hour tissue levels in Colon26 tumor bearing mice; format: in vivo; conditions: female, athymic BALB/c nude or BALB/c, mouse, po, single dose 100 mg/kg p.o., 2-hour post dose
Method: Female mice (either athymic BALC/c nude, or BALB/c mice) were inoculated with a single subcutaneous injection of 0.2 ml of mouse Colon-26 cell suspension (1×10^5 cells per animal) in the inguinal region. Colon26 (C26) tumor bearing mice received a single dose (3 mice/treatment) of vehicle (10% DMSO/90% [20% SBE-β-CD in saline], pH 5) containing compounds at 100 mg/kg by gavage (p.o.) and 2-hour post dose humanely euthanized.
Blood was obtained through cardiac puncture into K+EDTA tubes, mixed by inversion and centrifuged to obtain the plasma. Tissues were excised, cleaned of surrounding tissues. All samples immediately snap frozen in liquid N2 prior to LC-MS/MS analysis (using Waters HSS T3 2.1×50 mm (1.8 um) LC column, and an API-6500 Electrospray MS unit).

[8] = Absorption & efflux: Caco-2 permeability; conditions: human
hERG Channel [9] = biological target: T1, hERG Channel; assay: cell-based
[10] = tested on: A549 CRAF BP (MEK phosphorylation); assay: A549-CRAF BP 100 nM, 2 h (pMEK); format: cell-based; conditions: Homo sapiens, A549, 2 h, phospho:total ratio normalized to DMSO control
Method: A549 or […] cells were treated in duplicate for two hours with compounds at varying concentrations. After two hours, the cells were lysed, snap frozen, and stored at −80° C. After storage, the lysate was quantified with the Bradford assay. Before the lysates were prepared to run on the Jess, the lysates were diluted to 1 mg/mL for pERK analysis and 1.5 mg/mL pMEK analysis using quantitative Western blotting. ERK and MEK phosphorylation levels were estimated by taking the ratio of phospho-protein to total protein and normalizing to the DMSO control. The results of this study are described in Tables 14-16.

A549 pERK = assay: A549-pERK, 2 h (quantitative Western, Jess); format: cell-based; conditions: Homo sapiens, A549, 2 h, phospho:total ratio normalized to DMSO control; for activity at 0.01 µM: 10 nM
In short: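 Cells treated in duplicate for 2 h with compound, lysed and protein-normalised (1 mg/mL pERK, 1.5 mg/mL pMEK). Quantitative capillary Western; phospho/total protein ratio normalised to DMSO.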

[11] = tested on: A549 (KRAS G12S) pERK: total ERK; assay: Phospho-ERK screen in A549 (KRAS G12S); format: cell-based; conditions: 10 μM for 2 hours; for activity at 10 µM: Homo sapiens, A549, 2 h, read-out: pERK: total ERK (% relative to vehicle)
Method: Materials and Methods: A549 or A375 cells were seeded in 6-well plates at an appropriate seeding density on day 0. On day 2 or 3, after checking the health and confluency of cells, the media was aspirated and replaced with 1 mL media containing a predetermined concentration of compound and incubated for 2 hours. After 2 hours, the media was aspirated, and the cells washed 2 times with cold PBS. Cells were lysed on ice, with 50 uL 1×CST lysis buffer+1 mM PMSF for 5 minutes. After 5 minutes, cells were removed using a scraper and transferred to cold 1.5 mL tubes, and centrifuged for 10 min, 4° C., 14,000×g. Supernatant was gently removed and snap frozen in liquid nitrogen. Protein concentration of the lysate was determined using Bradford Reagent (analyzed using SpectraMax M2E) and diluted to 1 mg/mL or pERK or 1.5 mg/mL for pMEK analysis. Cell lysates were then analyzed for phosphor-ERK/total-ERK levels on a Jess system (ProteinSimple; Cat #JS3346) using the following antibodies: tERK1/2 (CST 4696; 1:50) and pERK1/2 (CST 4377; 1:50). For pMEK/tMEK, the following antibodies were used: tMEK1/2 (CST 4694; 1:15) and pMEK1/2 (CST 9154; 1:400). All dilutions were in Milk-free antibody diluent.
The results of a phospho-ERK Screen in A549 (KRAS G12S) study is described in Table 7, 7A, 7B, and 8 below.

Chain of CYP450 3A4 (P08684 whole entry): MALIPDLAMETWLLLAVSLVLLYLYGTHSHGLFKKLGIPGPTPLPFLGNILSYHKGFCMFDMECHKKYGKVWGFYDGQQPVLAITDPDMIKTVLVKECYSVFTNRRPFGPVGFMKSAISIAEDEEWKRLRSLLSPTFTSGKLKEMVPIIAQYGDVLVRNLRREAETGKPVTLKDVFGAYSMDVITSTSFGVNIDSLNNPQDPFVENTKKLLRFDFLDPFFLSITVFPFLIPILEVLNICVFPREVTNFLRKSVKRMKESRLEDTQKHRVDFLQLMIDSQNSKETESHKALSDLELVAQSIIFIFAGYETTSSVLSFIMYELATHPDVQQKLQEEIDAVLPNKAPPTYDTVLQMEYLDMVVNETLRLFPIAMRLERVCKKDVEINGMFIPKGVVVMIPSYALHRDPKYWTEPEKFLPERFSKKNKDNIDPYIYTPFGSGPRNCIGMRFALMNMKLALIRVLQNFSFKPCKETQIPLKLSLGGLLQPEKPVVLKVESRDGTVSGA
T1 sequence (Q12809 whole entry): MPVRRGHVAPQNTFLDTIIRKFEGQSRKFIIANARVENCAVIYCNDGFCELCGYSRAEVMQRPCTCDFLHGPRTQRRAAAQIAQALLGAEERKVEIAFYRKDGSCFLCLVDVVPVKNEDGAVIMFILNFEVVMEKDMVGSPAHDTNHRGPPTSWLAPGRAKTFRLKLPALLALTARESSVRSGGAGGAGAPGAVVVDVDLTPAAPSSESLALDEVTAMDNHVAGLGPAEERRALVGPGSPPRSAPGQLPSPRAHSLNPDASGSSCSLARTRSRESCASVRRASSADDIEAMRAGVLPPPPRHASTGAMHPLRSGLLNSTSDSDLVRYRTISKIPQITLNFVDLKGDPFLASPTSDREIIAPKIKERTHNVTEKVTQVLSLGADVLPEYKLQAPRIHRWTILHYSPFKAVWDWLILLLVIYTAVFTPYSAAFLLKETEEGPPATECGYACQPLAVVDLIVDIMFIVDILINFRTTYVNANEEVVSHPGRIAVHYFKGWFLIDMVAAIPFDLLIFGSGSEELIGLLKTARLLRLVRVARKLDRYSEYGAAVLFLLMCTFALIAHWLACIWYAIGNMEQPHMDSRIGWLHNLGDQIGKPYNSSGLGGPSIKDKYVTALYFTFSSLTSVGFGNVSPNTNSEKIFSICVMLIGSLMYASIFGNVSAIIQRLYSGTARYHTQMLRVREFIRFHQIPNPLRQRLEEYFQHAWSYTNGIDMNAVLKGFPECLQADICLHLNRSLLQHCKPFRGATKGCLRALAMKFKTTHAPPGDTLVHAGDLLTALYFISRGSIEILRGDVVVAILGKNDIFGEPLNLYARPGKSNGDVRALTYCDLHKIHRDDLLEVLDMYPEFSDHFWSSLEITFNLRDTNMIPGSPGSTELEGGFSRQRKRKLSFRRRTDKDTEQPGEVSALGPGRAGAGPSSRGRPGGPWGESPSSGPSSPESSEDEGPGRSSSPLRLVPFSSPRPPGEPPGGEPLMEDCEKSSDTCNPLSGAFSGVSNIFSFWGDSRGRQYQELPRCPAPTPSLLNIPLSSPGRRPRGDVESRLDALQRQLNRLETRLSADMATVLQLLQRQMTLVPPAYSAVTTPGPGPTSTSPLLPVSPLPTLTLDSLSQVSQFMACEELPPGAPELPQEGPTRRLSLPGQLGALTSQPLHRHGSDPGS
Chain of CYP450 2C9 (P11712 whole entry): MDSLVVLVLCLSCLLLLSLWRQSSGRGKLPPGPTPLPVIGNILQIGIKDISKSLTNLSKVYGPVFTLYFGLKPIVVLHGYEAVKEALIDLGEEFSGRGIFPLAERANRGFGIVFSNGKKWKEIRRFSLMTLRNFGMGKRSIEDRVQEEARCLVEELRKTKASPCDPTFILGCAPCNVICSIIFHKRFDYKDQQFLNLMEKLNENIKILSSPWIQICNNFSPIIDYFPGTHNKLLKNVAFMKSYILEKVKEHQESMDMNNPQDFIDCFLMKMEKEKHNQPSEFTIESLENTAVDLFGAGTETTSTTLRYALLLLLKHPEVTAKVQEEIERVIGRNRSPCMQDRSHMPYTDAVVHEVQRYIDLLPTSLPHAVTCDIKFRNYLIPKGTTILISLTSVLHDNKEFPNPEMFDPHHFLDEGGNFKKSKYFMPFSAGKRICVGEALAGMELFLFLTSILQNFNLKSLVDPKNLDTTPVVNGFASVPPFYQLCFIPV
Chain of CYP450 2C19 (P33261 whole entry): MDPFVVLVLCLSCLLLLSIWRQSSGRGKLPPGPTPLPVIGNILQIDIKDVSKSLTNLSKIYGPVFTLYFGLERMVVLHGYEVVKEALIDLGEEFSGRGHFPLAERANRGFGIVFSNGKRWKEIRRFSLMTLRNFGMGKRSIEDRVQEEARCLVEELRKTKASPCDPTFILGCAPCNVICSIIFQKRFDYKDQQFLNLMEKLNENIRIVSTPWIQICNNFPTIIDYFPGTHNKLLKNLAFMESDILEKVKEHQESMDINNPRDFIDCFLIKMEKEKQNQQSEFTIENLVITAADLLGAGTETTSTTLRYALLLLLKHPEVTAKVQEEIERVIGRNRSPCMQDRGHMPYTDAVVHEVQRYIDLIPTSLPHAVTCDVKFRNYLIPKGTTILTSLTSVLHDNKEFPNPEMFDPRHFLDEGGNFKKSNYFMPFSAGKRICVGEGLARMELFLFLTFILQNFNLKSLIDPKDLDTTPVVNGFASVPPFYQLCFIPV
Chain of CYP450 2D6 (P10635 whole entry): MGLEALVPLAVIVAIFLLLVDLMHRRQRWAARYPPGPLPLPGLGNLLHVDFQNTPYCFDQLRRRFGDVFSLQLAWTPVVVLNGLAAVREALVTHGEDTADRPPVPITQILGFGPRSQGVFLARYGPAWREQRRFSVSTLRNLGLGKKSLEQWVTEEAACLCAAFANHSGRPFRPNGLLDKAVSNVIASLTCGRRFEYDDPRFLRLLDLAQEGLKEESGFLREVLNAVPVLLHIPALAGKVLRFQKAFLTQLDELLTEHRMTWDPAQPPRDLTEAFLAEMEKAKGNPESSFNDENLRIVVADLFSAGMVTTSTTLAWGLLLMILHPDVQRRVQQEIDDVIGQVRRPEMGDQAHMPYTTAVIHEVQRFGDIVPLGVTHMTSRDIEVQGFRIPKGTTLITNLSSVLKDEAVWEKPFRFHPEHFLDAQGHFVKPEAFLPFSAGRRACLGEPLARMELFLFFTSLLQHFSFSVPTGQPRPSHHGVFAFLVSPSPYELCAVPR

Row | Compound | 2D6* (CYP450 2D6) | 2C9* (CYP450 2C9) | Beagle Dog (% Reamining @2 hour) [2] | 2C8* (CYP450 2C8) | CD-1 Mouse (% Reamining @2 hour) [3] | CD-1 Mouse (% Reamining @1 hour) [4] | Human (% Reamining @1 hour) [5] | 2C19* (CYP450 2C19) | 2B6* (CYP450 2B6) | 1A2* (CYP450 1A2) | Human (% Reamining @2 hour) (Plasma stability, human) | Beagle Dog (% Reamining @1 hour) [6] | 3A4* (CYP450 3A4) | 3A4^ (CYP450 3A4) | activity at 0.1 µM [10] | activity at 0.01 µM (A549 pERK) | pERK: total ERK (% relative to vehicle) [11] | activity at 10 µM (A549 pERK) | activity at 10 µM [11] | other results
1 | CNS(=O)(=O)Nc1cccc(Cc2c(C)c3ccc(OC(=O)N(C)C)cc3oc2=O)c1F [Compound 7] | −7.4 | 33.8 | 99.8% | 14.4 | 56.5% | 29.6% | 61.1% | 11.6 | 28.5 | 0.3 | 88.1% | 57.0% | 29.9 | 59.7 |  |  |  |  |  | IC50 (hERG Channel [1]): 28.6 µM
2 | C#CCNCc1c(Cc2cccc(NS(=O)(=O)NC)c2F)c(=O)oc2cc(OC(=O)N(C)C)ccc12 [Compound 14] | 6.6 | 8.2 | 91.2% | 8.4 | 95.0% | 13.2% | 38.1% | 4.0 | 15.6 | 6.3 | 96.0% | 51.6% | 26.7 | 39.3 | 59.1% | 64% |  |  |  | concentration at 2 h ([7]; liver, read-out: Liver): 17.8 ng/g; concentration at 2 h ([7]; muscle, read-out: Muscle): 19 ng/g; concentration at 2 h ([7]; plasma, read-out: Plasma): 18.5 ng/mL; concentration at 2 h ([7]; tumor, read-out: Tumor): 2.68 ng/g; Papp B→A at 2 h, 10 μM [8]: 26.1 ×10⁻⁶ cm/s; efflux ratio at 2 h, 10 μM [8]: 2.8; Papp A→B at 2 h, 10 μM ([8]; Caco-2, A-B Permeability Ranking): > 1 ×10⁻⁶ cm/s; Papp A→B at 2 h, 10 μM ([8]; Caco-2, Mean Papp A-B (10^−6 cm/s)): 9.34 ×10⁻⁶ cm/s; IC50 (hERG Channel [9]): 19.4 µM
3 | CNS(=O)(=O)Nc1cccc(Cc2c(CNC(=O)OCCO)c3ccc(OC(=O)N(C)C)cc3oc2=O)c1F [Compound 106] |  |  |  |  |  |  |  |  |  |  |  |  |  |  |  |  | 27.88% | 27.9% |  | 
4 | CNS(=O)(=O)Nc1cccc(Cc2c(CN3CCNCC3)c3cc(F)c(OC(=O)N(C)C)cc3oc2=O)c1F [Compound 134] |  |  |  |  |  |  |  |  |  |  |  |  |  |  | 26.9% | 33.1% |  |  | 23.4% | 
5 | CNS(=O)(=O)Nc1cccc(Cc2c(CNC(=O)OCCO)c3ccc(OC(=O)N(C)C)cc3oc2=O)c1F [Compound 185] |  |  |  |  |  |  |  |  |  |  |  |  |  |  |  |  | 7.39% |  |  | 
6 | CNS(=O)(=O)Nc1cccc(Cc2c(CNCC(=O)N3CCNCC3)c3ccc(OC(=O)N(C)C)cc3oc2=O)c1F [Compound 191] |  |  |  |  |  |  |  |  |  |  |  |  |  |  |  | 131% |  | 8.6% | 7.34% | 
